Source: patent US6599715B1, “Real time viability detection of bacterial spores” (priority 1999, dated 2003)

The molecules below were run on Bacillus globigii spores. Details: relative germination; phase change monitored at 450 nm over 10 minutes; 3.6×10^8 spores per ml in 20 mM potassium phosphate buffer (pH 7.4).
Type: cell-based
Procedure: Bacillus cultures were grown at 30° C. with moderate aeration for 7 days. Spores were harvested by centrifugation at 10,900×g for 30 minutes at 4° C. and resuspended in 200 milliliters (ml) of sterile distilled water and washed 7 to 10 times, heated to 65° C. for 15 minutes to kill any vegetative cells, and stored at 4° C. Spore populations were determined from the average of 3 serial dilution plates.
B. globigii spores (500 microliters (μl)) were diluted to a concentration of 3.6×10^8 spores per ml in 20 millimolar (mM) potassium phosphate buffer (pH 7.4), and mixed with 500 μl of a 0.12 M solution of one or more of L-alanine, L-asparagine and D-glucose, together with DPA and other chemicals to test the effectiveness of various combinations as germinating agents. The phase change of the spores in the germinants was monitored at 450 nm over a period of 10 minutes.
Work on O=C(O)c1cccc(C(=O)O)n1 [20 mM DPA, pyridine-2,6-dicarboxylic acid] yielded a Percent germination of 7.3%. Molecule O=C[C@H](O)[C@@H](O)[C@H](O)[C@H](O)CO [20 mM D-glucose, D-glucose] has a Percent germination of 7.0%. C[C@H](N)C(=O)O [20 mM L-alanine, L-alanine] gave a Percent germination of 50.1%. NC(=O)C[C@H](N)C(=O)O [20 mM L-asparagine, L-asparagine] was tested, and the Percent germination was 5.2%.
